Columns and labels:
CYP2B6 [1] = molecular target: T1, CYP2B6 (Homo sapiens, UniProt P20813); conditions: 50 μM (with 1% methanol)
T1 sequence (P20813 1-491): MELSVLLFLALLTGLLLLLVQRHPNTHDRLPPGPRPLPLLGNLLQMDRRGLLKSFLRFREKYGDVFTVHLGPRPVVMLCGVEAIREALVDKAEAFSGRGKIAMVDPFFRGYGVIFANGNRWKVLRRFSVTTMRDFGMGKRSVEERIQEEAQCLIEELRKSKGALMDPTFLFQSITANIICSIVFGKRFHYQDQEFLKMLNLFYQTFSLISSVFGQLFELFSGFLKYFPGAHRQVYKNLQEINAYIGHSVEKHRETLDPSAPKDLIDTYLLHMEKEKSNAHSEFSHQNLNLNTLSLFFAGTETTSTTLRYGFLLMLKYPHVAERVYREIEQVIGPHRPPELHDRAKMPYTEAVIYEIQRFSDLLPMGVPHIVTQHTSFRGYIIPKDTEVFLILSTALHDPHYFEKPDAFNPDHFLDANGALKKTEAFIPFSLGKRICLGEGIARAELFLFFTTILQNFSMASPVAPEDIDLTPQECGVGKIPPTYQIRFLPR
Protocol: All incubations were carried out in triplicates.

CYP1A2 [2] = molecular target: T2, CYP1A2 (Homo sapiens, UniProt P05177); type: in vitro ADME; conditions: 50 μM megestrol acetate, microsomes
T2 sequence (P05177 1-516): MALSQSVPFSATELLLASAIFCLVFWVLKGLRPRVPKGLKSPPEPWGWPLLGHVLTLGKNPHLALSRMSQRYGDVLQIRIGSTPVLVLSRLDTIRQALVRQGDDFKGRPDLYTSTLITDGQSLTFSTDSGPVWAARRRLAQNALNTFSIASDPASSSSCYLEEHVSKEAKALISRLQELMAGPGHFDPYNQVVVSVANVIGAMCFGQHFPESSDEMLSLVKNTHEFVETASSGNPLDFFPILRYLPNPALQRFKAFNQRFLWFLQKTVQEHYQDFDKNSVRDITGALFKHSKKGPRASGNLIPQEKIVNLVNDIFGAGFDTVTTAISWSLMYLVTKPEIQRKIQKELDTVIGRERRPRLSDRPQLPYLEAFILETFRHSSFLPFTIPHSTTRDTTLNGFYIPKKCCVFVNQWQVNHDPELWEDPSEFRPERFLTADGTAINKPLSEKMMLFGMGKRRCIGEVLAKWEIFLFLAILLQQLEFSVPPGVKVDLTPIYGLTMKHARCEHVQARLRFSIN

CYP2C9 [3] = molecular target: T3, CYP2C9 (Homo sapiens, UniProt P11712); type: in vitro ADME; conditions: 50 μM megestrol acetate, microsomes
CYP2C19 [4] = molecular target: T4, CYP2C19 (Homo sapiens, UniProt P33261); type: in vitro ADME; conditions: 50 μM megestrol acetate, microsomes
CYP2E1 [5] = type: in vitro ADME; conditions: 50 μM megestrol acetate, microsomes, diethyldithiocarbamate
CYP1A2 [6] = molecular target: T2, CYP1A2
Protocol: (§1) The stock solutions were added to incubation mixtures to obtain the final concentrations of 5 and 50 μM, each containing 1% acetonitrile.
Microsomes were prepared by differential centrifugation of liver homogenates pooled from at least ten human donors.
(§2) After a 5 minute preincubation, nicotinamide adenine dinucleotide phosphate (NADPH) regenerating system (NRS; 1.7 mg/mL β-NADP, 7.8 mg/mL glucose-6-phosphate, and 6 units/mL glucose-6-phosphate dehydrogenase in 2% sodium bicarbonate solution) was added to initiate the reaction. The final incubation volume was 0.5 mL. Incubations were continued for 60 minutes.
(§3) All incubations were conducted at 37±1° C. in a shaking water bath. All incubations were carried out in triplicates.
(§4) After a 5-minute preincubation, 2% sodium bicarbonate solution was added to the incubation mixtures. The final incubation volume was 0.5 mL. Incubations were continued for 60 minutes.
(§5) Incubation reactions, including the matrix controls and metabolic negative controls, were terminated by adding 0.5 mL methanol.
(§6) The samples were analyzed on a Supelcosil LC-18 column (3μ, 120 Å, 3.0×100 mm).

CYP2A6 [7] = test system: CYP2A6
CYP2D6 [8] = molecular target: T5, CYP2D6 (Homo sapiens, UniProt P10635)
Protocol: as §1, §2, §3, §4, §5, §6

CYP2E1 [9] = test system: CYP2E1
Protocol: as §1, §2, §3, §4, §5, §6

CYP3A4 [10] = molecular target: T6, CYP3A4 (Homo sapiens, UniProt P08684)
Target sequence in this assay (P08684 whole entry): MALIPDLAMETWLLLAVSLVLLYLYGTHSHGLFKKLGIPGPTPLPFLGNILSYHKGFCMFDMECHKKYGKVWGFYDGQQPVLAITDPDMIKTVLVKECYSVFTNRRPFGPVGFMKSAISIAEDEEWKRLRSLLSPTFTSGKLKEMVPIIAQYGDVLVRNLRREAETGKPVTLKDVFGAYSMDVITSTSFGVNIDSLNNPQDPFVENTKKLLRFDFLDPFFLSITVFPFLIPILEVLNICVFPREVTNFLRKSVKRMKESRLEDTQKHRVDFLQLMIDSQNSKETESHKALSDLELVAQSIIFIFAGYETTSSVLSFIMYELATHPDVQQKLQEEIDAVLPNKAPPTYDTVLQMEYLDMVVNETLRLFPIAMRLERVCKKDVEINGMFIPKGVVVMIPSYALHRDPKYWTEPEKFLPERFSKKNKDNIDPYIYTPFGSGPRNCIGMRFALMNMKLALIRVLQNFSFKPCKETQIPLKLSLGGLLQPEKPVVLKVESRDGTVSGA
Protocol: as §1, §2, §3, §4, §5, §6

CYP2A6 [11] = conditions: 50 μM megestrol acetate, microsomes, tranylcypromine
CYP2B6 [12] = molecular target: T1, CYP2B6; conditions: 50 μM megestrol acetate, microsomes, CYP2B6 inhibitor
CYP1A2 [13] = molecular target: T2, CYP1A2; type: in vitro ADME; design: purchased BD Biosciences Discovery Labware, Woburn, Mass; host or cells: baculovirus-infected insect cells; conditions: 50 μM megestrol acetate, 20 pmol CYP1A2
CYP2B6 [14] = molecular target: T1, CYP2B6; type: in vitro ADME; design: purchased BD Biosciences Discovery Labware, Woburn, Mass; host or cells: baculovirus-infected insect cells; conditions: 50 μM megestrol acetate, 20 pmol CYP2B6
CYP2C9 [15] = molecular target: T3, CYP2C9; type: in vitro ADME; design: purchased BD Biosciences Discovery Labware, Woburn, Mass; host or cells: baculovirus-infected insect cells; conditions: 50 μM megestrol acetate, 20 pmol CYP2C9
CYP2C19 [16] = molecular target: T4, CYP2C19; type: in vitro ADME; design: purchased BD Biosciences Discovery Labware, Woburn, Mass; host or cells: baculovirus-infected insect cells; conditions: 50 μM megestrol acetate, 20 pmol CYP2C19
CYP2D6 [17] = molecular target: T5, CYP2D6; type: in vitro ADME; design: purchased BD Biosciences Discovery Labware, Woburn, Mass; host or cells: baculovirus-infected insect cells; conditions: 50 μM megestrol acetate, 20 pmol CYP2D6
CYP3A4 [18] = molecular target: T6, CYP3A4; type: in vitro ADME; design: purchased BD Biosciences Discovery Labware, Woburn, Mass; host or cells: baculovirus-infected insect cells; conditions: 50 μM megestrol acetate, 20 pmol CYP3A4
Target sequence in this assay (P08684 2-503 limits assumed): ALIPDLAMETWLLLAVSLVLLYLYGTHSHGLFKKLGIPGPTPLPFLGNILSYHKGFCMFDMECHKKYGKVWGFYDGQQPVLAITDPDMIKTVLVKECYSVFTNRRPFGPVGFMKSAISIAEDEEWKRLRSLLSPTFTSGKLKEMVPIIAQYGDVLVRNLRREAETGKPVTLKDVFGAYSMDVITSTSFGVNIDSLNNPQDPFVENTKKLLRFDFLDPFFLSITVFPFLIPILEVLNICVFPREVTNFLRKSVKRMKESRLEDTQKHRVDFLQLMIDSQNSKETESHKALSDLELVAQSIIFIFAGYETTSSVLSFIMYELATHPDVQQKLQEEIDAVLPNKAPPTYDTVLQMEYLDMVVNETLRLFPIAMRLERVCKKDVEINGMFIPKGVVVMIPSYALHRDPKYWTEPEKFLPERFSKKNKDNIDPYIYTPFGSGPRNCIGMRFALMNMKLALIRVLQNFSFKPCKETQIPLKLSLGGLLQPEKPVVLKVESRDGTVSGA

[19] = human, microsomes, 60 min, pH 7.4

T5 sequence (P10635 whole entry): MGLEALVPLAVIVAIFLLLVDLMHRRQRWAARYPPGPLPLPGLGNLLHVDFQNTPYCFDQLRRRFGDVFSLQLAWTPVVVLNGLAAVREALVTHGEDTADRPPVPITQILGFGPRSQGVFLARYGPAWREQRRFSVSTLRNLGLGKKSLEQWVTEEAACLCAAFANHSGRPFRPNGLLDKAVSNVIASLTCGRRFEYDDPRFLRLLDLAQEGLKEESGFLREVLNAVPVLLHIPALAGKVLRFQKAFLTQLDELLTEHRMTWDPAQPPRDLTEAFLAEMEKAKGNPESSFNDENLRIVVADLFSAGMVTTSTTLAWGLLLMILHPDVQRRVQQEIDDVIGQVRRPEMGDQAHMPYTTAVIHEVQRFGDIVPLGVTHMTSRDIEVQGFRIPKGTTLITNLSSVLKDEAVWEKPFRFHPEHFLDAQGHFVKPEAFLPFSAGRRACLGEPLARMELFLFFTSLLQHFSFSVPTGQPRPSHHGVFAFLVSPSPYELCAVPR
T4 sequence (P33261 whole entry): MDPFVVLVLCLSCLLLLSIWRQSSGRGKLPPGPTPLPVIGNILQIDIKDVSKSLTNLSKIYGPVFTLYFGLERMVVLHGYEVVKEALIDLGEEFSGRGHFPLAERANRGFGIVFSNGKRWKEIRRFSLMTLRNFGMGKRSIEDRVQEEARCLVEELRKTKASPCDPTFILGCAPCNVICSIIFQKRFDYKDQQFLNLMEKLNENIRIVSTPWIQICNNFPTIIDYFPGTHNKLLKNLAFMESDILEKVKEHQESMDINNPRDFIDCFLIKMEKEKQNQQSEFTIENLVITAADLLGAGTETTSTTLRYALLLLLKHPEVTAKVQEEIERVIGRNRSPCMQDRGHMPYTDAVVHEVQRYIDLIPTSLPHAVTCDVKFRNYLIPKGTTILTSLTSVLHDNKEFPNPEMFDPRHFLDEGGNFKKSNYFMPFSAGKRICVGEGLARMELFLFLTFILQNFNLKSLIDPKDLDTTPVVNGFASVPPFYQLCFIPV
T3 sequence (P11712 whole entry): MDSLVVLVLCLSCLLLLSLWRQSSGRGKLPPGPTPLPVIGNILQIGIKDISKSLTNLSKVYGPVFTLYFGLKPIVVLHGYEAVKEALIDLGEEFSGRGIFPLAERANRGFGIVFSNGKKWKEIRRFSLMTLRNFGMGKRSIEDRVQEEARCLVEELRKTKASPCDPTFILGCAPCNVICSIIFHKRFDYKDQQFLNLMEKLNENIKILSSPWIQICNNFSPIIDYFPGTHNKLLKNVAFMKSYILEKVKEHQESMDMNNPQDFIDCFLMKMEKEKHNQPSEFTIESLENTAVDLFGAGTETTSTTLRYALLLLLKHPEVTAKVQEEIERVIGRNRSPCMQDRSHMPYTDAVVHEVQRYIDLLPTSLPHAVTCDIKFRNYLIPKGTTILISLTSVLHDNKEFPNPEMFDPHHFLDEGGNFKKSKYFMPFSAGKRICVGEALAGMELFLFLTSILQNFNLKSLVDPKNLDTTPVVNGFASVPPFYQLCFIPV

## CC(=O)O[C@]1(C(C)=O)CC[C@H]2[C@@H]3C=C(C)C4=CC(=O)CC[C@]4(C)[C@H]3CC[C@@]21C [Megestrol Acetate, 17 α-acetyloxy-6-methylpregna-4,6-diene-3,20-dione]
CYP2B6 [1]
  Percent of Parent Disappearance Individual: 54.8%
CYP1A2 [2]
  difference in metabolism in the presence or absence of the inhibitor (LC/MS): no significant difference in metabolism
CYP2C9 [3]
  difference in metabolism in the presence or absence of the inhibitor (LC/MS): no significant difference in metabolism
CYP2C19 [4]
  difference in metabolism in the presence or absence of the inhibitor (LC/MS): no significant difference in metabolism
CYP2E1 [5]
  difference in metabolism in the presence or absence of the inhibitor (LC/MS): a significant difference in metabolism
CYP1A2 [6]
  percent metabolized in presence vs absence of inhibitor (unpaired two-tailed t-test): does not differ from the percentage of megestrol acetate metabolized in the absence of the inhibitor
CYP1A2 [6]; [19]
  metabolized in pooled human liver microsomes: > 20%
CYP2A6 [7]
  percent metabolized in presence vs absence of inhibitor (unpaired two-tailed t-test): less than that of the percentage of megestrol acetate metabolized in the absence of the inhibitor
CYP2A6 [7]; [19]
  metabolized in pooled human liver microsomes: > 20%
CYP2C8
  percent metabolized in presence vs absence of inhibitor (unpaired two-tailed t-test): less than that of the percentage of megestrol acetate metabolized in the absence of the inhibitor
CYP2C8; 50 μM (with 100 μM Quercetin)
  Percent of Parent Disappearance Individual: 7.51%
CYP2C8; [19]
  metabolized in pooled human liver microsomes: > 20%
CYP2D6 [8]
  percent metabolized in presence vs absence of inhibitor (unpaired two-tailed t-test): not different from the percentage of megestrol acetate metabolized in the absence of the inhibitor
CYP2D6 [8]; [19]
  metabolized in pooled human liver microsomes: > 20%
CYP2E1 [9]
  percent metabolized in presence vs absence of inhibitor (unpaired two-tailed t-test): less than that of the percentage of megestrol acetate metabolized in the absence of the inhibitor
CYP2E1 [9]; [19]
  metabolized in pooled human liver microsomes: > 20%
CYP3A4 [10]
  percent metabolized in presence vs absence of inhibitor (unpaired two-tailed t-test): less than that of the percentage of megestrol acetate metabolized in the absence of the inhibitor
CYP3A4 [10]; [19]
  metabolized in pooled human liver microsomes: > 20%
CYP2A6 [11]
  difference in metabolism in the presence or absence of the inhibitor (LC/MS): a slight difference in metabolism
CYP2B6 [12]
  difference in metabolism in the presence or absence of the inhibitor (LC/MS): no significant difference in metabolism
CYP1A2 [13]
  metabolism based on analysis of metabolites formed: < 1%
CYP2B6 [14]
  metabolites observed: 1.23%
CYP2C9 [15]
  metabolites formed: no metabolites observed
CYP2C19 [16]
  metabolites detected: 1.14%
CYP2D6 [17]
  metabolites formed: no metabolites were detected
CYP3A4 [18]
  metabolism of megestrol acetate by mass spectrometric methods: More than 50%
